In patent publication US10399932B2, “Inhibitors of indoleamine-2,3-dioxygenase for the treatment of cancer” (BRISTOL-MYERS SQUIBB COMPANY, priority 2015, dated 2019):

What follows are molecules tested against human IDO1 (Homo sapiens, UniProt P14902) (assay: Assessment of human IDO-1 inhibitory activity in HEK cells (human IDO1/HEK293 cells, Ehrlich reagent, absorbance at 490 nm)). Details: In Vitro Potency in the HEK Human IDO-1 Cellular Assay.
human IDO1, sequence (P14902 whole entry): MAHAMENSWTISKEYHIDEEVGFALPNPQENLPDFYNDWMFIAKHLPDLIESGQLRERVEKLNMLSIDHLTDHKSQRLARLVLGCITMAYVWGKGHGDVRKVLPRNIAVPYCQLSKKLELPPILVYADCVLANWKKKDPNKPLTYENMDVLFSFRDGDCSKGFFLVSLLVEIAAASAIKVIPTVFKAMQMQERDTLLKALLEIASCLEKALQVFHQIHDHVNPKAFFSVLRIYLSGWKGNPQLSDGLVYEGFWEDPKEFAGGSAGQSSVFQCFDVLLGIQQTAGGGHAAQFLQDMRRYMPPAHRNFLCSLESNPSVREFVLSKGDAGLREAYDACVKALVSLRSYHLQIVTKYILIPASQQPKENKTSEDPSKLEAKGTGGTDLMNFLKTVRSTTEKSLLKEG
Type: cell-based
Design: expressed in transfected cells
Procedure: Exemplary compounds were tested for inhibition of IDO activity.
HEK293 cells were transfected with a pCDNA-based mammalian expression vector harboring human IDO1 cDNA (NM 002164.2) by electroporation. They were cultured in medium (DMEM with 10% FBS) containing 1 mg/ml G418 for two weeks. Clones of HEK293 cells that stably expressed human IDO1 protein were selected and expanded for IDO inhibition assay.
The human IDO1/HEK293 cells were seeded at 10,000 cells per 50 μL per well with RPMI/phenol red free media contains 10% FBS in a 384-well black wall clear bottom tissue culture plate (Matrix Technologies LLC) 100 nL of certain concentration of compound was then added to each well using ECHO liquid handling systems. The cells were incubated for 20 hours in 37° C. incubator with 5% CO2.
The compound treatments were stopped by adding trichloroacetic acid (Sigma-Aldrich) to a final concentration at 0.2%. The cell plate was further incubated at 50° C. for 30 minute. The equal volume supernatant (20 μL) and 0.2% (w/v) Ehrlich reagent (4-dimethylaminobenzaldehyde, Sigma-Aldrich) in glacial acetic acid were mixed in a new clear bottom 384-well plate. This plate was then incubated at room temperature for 30 minute. The absorbance at 490 nm was measured on Envision plate reader.
Compound IC50 values were calculated using the counts of 500 nM of a reference standard treatment as one hundred percent inhibition, and counts of no compound but DMSO treatment as zero percent inhibition.
`CCC(CC(=O)O)c1ccc(N(CC(C)C)C2CCCCC2)c(Nc2ccc(Cl)c(OCC(F)F)c2)c1` (single isomer, unassigned) [Example 650, 3-(3-((4-chloro-3-(2,2-difluoroethoxy)phenyl)amino)-4-(cyclohexyl(isobutyl)amino)phenyl)pentanoic acid] was tested, and the IC50 was less than 5 nM. `CCc1cnc(Nc2cc([C@@H](CC)CC(=O)O)ccc2N(CC)C2CCCCC2)nc1` (single isomer, unassigned) [Example 280] showed an IC50 greater than 50 nM. For `CCC(CC(=O)O)c1cc(F)c(N(CC(C)C)CC(C)C)c(Nc2ccc(Cl)cc2)c1` (single isomer, unassigned) [Example 115, 3-(3-((4-chlorophenyl)amino)-4-(diisobutylamino)-5-fluorophenyl)pentanoic acid], the IC50 was less than 5 nM. `COCC(CC(=O)O)c1ccc(N(CC(C)C)C2CCOCC2)c(NC(=O)Nc2cc(C)on2)c1` (single isomer, unassigned) [Example 1220, 3-(4-(Isobutyl(tetrahydro-2H-pyran-4-yl)amino)-3-(3-(5-methylisoxazol-3-yl)ureido)phenyl)-4-methoxybutanoic acid] showed an IC50 greater than 50 nM. Molecule `CCC(CC(=O)O)c1ccc(N2CCC[C@@H]2COC)c(NC(=O)Cc2ccc(C)cc2)c1` (single isomer, unassigned) [Example 1145] has an IC50 greater than 50 nM. For `CCC(CC(=O)O)c1ccc(N2CCC[C@H]2C(C)(C)O)c(NC(=O)Nc2ccc(OC)cc2)c1` (single isomer, unassigned) [Example 827], the IC50 was greater than 50 nM. `CCC(CC(=O)O)c1ccc(N2CCOC[C@H]2C(C)C)c(NC(=O)Nc2ccc(Cl)cc2F)c1` (single isomer, unassigned) [Example 908] was tested, and the IC50 was less than 50 nM. Work on `CCC(CC(=O)O)c1ccc(N2CCC[C@H]2C(C)(C)O)c(Nc2cnc(OC)nc2)c1` (single isomer, unassigned) [Example 841] yielded an IC50 greater than 50 nM. Molecule `COCC(CC(=O)O)c1cc(F)c(N(CC(C)C)C2CCCCC2)c(NC(=O)Cc2ccc(C)cc2)c1` (single isomer, unassigned) [Example 1174, 3-(4-(cyclohexyl(isobutyl)amino)-3-fluoro-5-(2-(p-tolyl)acetamido)phenyl)-4-methoxybutanoic acid] has an IC50 of less than 50 nM. Work on `CCOc1cc(Nc2cc(C(CC)CC(=O)O)ccc2N(CC(C)C)C2CCCCC2)ccc1Cl` (single isomer, unassigned) [Example 646, 3-(3-((4-chloro-3-ethoxyphenyl)amino)-4-(cyclohexyl(isobutyl)amino)phenyl)pentanoic acid] yielded an IC50 of less than 5 nM. With `Cc1ccc(NC(=O)Nc2cc(C(C)CC(=O)O)c(F)cc2N(CC(C)C)C2CCCCC2)cc1` (single isomer, unassigned) [Example 957, 3-(4-(Cyclohexyl(isobutyl)amino)-2-fluoro-5-(3-(p-tolyl)ureido)phenyl)butanoic acid] the IC50 was less than 5 nM. For `CCC(CC(=O)O)c1ccc(N2CCC[C@@H]2C(C)(C)O)c(NC(=O)Nc2ccc(OC)cc2)c1` (single isomer, unassigned) [Example 777], the IC50 was greater than 50 nM. In the case of `CCc1ccc(Nc2cc(C(CC)CC(=O)O)cc(F)c2N(CC(C)C)CC(C)C)cc1` (single isomer, unassigned) [Example 112, 3-(4-(diisobutylamino)-3-((4-ethylphenyl)amino)-5-fluorophenyl)pentanoic acid], the IC50 is reported as less than 50 nM. With `CCC(CC(=O)O)c1ccc(N(CC(C)C)C2CCCCC2)c(Nc2cnc(OC(C)C)nc2)c1` (single isomer, unassigned) [Example 655, 3-(4-(cyclohexyl(isobutyl)amino)-3-((2-isopropoxypyrimidin-5-yl)amino)phenyl)pentanoic acid] the IC50 was less than 5 nM. Work on `CC[C@@H](CC(=O)O)c1ccc(N(CC(C)C)C2CCS(=O)(=O)CC2)c(NC(=O)Nc2cc(C)on2)c1` (single isomer, unassigned) [Example 218] yielded an IC50 greater than 50 nM. `CCC(CC(=O)O)c1ccc(N2C[C@@H](C)O[C@@H](C)C2)c(Nc2ccc(F)cc2)c1` (single isomer, unassigned) [Example 759] was tested, and the IC50 was greater than 50 nM. For `CC(C)CN(c1ccc(C(CC(=O)O)C2CC2)cc1NC(=O)Nc1ccc(Cl)cc1F)C1CCOCC1` (single isomer, unassigned) [Example 1199 Enantiomer 2, 3-(3-(3-(4-Chloro-2-fluorophenyl)ureido)-4-(isobutyl(tetrahydro-2H-pyran-4-yl)amino)phenyl)-3-cyclopropylpropanoic acid], the IC50 was less than 5 nM. Molecule `CCC(CC(=O)O)c1ccc(N2CC3CC2CN3Cc2ccccc2)c(NC(=O)Nc2ccc(C)cc2)c1` (single isomer, unassigned) [667 E2] has an IC50 greater than 50 nM. With `CCOc1ncc(Nc2cc(C(C)CC(=O)O)ccc2N2C[C@@H](C)O[C@@H](C)C2)cn1` (single isomer, unassigned) [Example 748] the IC50 was greater than 50 nM. With `CCOc1ccc(NC(=O)Nc2cc(C(COC)CC(=O)O)cc(F)c2N(CC(C)C)C2CCCCC2)c(F)c1` (single isomer, unassigned) [Example 1165, 3-(4-(cyclohexyl(isobutyl)amino)-3-(3-(4-ethoxy-2-fluorophenyl)ureido)-5-fluorophenyl)-4-methoxybutanoic acid] the IC50 was less than 5 nM. For `Cc1nc2ccc(Nc3cc(C(CC(=O)O)c4ccccc4)cc(F)c3N(CC(C)C)CC(C)C)cc2s1` (single isomer, unassigned) [Example 132, 3-(4-(diisobutylamino)-3-fluoro-5-((2-methylbenzo[d]thiazol-6-yl)amino)phenyl)-3-phenylpropanoic acid], the IC50 was greater than 50 nM. `COCC(CC(=O)O)c1ccc(N(CC(C)C)CC(C)C)c(NC(=O)Nc2ccc(Cl)cc2F)c1` (single isomer, unassigned) [Example 995-2] showed an IC50 of less than 5 nM. In the case of `CCOc1ccc(NC(=O)Nc2cc(C(CC)CC(=O)O)c(F)cc2N(CC(C)C)CC(C)C)c(F)c1` (single isomer, unassigned) [Example 1139, 3-(4-(Diisobutylamino)-5-(3-(4-ethoxy-2-fluorophenyl)ureido)-2-fluorophenyl) pentanoic acid], the IC50 is reported as less than 5 nM. In the case of `CCC(CC(=O)O)c1ccc(N(CC2CC2)C2CCOCC2)c(NC(=O)Nc2ccc(Cl)cc2F)c1` (single isomer, unassigned) [Example 699, 3-(3-(3-(4-Chloro-2-fluorophenyl)ureido)-4-((cyclopropylmethyl)(tetrahydro-2H-pyran-4-yl)amino)phenyl)pentanoic acid], the IC50 is reported as less than 5 nM. In the case of `CCC(CC(=O)O)c1ccc(N2CCC[C@@H]2C(C)(C)O)c(NC(=O)Nc2ccc(Cl)cc2F)c1` (single isomer, unassigned) [Example 776], the IC50 is reported as greater than 50 nM. Molecule `CCC(CC(=O)O)c1cc(F)c(N(CC(C)C)CC(C)C)c(Nc2cnc(OC)nc2)c1` (single isomer, unassigned) [Example 120, 3-(4-(diisobutylamino)-3-fluoro-5-((2-methoxypyrimidin-5-yl)amino)phenyl) pentanoic acid] has an IC50 of less than 5 nM. `CCC(CC(=O)O)c1ccc(N2CCOC[C@H]2C(C)C)c(NC(=O)Nc2ccc(C)cc2)c1` (single isomer, unassigned) [Example 907] gave an IC50 greater than 50 nM. `CCC(CC(=O)O)c1ccc(N(CC(C)C)CC(C)C)c(NC(=O)Cc2ccc(C#N)cc2)c1` (single isomer, unassigned) [Example 1105, 3-(3-(2-(4-Cyanophenyl)acetamido)-4-(diisobutylamino)phenyl)pentanoic acid] showed an IC50 of less than 5 nM. In the case of `COCC(CC(=O)O)c1ccc(N(CC(C)C)C2CCC(OC)CC2)c(NC(=O)Nc2ccc(C)cc2)c1` (racemic) [Example 1147], the IC50 is reported as less than 50 nM. Work on `COCC(CC(=O)O)c1ccc(N(CC(C)C)C2CCCCC2)c(NC(=O)Cc2ccc(C)cc2)c1` (single isomer, unassigned) [Example 1240, 3-(4-(Cyclohexyl(isobutyl)amino)-3-(2-(p-tolyl)acetamido)phenyl)-4-methoxybutanoic acid] yielded an IC50 of less than 50 nM. `COCC(CC(=O)O)c1cc(F)c(N(CC(C)C)C2CCCCC2)c(NC(=O)Nc2ccc(Cl)cc2)c1` (single isomer, unassigned) [Example 1166, 3-(3-(3-(4-chlorophenyl)ureido)-4-(cyclohexyl(isobutyl)amino)-5-fluorophenyl)-4-methoxybutanoic acid] gave an IC50 of less than 5 nM. `CCC(CC(=O)O)c1cc(F)c(N(CC(C)C)CC(C)C)c(Nc2ccnc(N3CCOCC3)n2)c1` (single isomer, unassigned) [Example 121, 3-(4-(diisobutylamino)-3-fluoro-5-((2-morpholinopyrimidin-4-yl)amino)phenyl) pentanoic acid] gave an IC50 greater than 50 nM. In the case of `CCC(CC(=O)O)c1ccc(N2CCC[C@H]2C(C)(C)O)c(NC(=O)Nc2ccc(Cl)cc2F)c1` (single isomer, unassigned) [Example 828], the IC50 is reported as greater than 50 nM. Molecule `CCOc1ncc(Nc2cc(C(C)CC(=O)O)ccc2N2CCC[C@H]2C(C)(C)O)cn1` (single isomer, unassigned) [Example 806] has an IC50 greater than 50 nM. Molecule `CCC(CC(=O)O)c1ccc(N(CC2CC2)C2CCOCC2)c(NC(=O)Nc2cc(C)on2)c1` (single isomer, unassigned) [Example 700, 3-(4-((Cyclopropylmethyl)(tetrahydro-2H-pyran-4-yl)amino)-3-(3-(5-methylisoxazol-3-yl)ureido)phenyl)pentanoic acid] has an IC50 greater than 50 nM.
